{"source": "patent EP3298025B1", "about": "“NEW AMINO ACID SEQUENCES WITH MI[…] DERIVED FROM NAJA ATRA CARDIOTOXIN 1 (CTX-1)” (Università degli Studi di Parma, priority 2015, dated 2016)", "key": {"[1]": {"system": "Pseudomonas aeruginosa ATCC 27853", "test": "antimicrobial activity in presence of Muller-Hinton 20%", "assay_type": "cell-based", "details": "20% of Muller-Hinton medium", "experimental": "(§1) This example verifies the peptides antimicrobial activity in presence of a concentration of 20% of Muller-Hinton liquid medium, characterized by the presence of salts with high concentration.\n(§2) Peptides were tested in the ability to inhibit bacterial growth in liquid medium. 50 µl of peptides at a concentration between 3.1 µg/ml (NCP-0=1.4µM; NCP-2=[…]; NCP-3=1.3 µM) and 100 µg/ml (NCP-0=46.3 µM; NCP-2=43.2 µM; NCP-3=41.6 µM) were added in microtiter plate wells with phosphate buffer 10 mM with Muller-Hinton liquid medium al the final concentration of 20% and one of these bacteria: E. coli ATCC 25922, Pseudomonas aeruginosa ATCC 27853, Staphylococcus aureus ATCC 25923 and Staphylococcus aureus methicillin resistant ATCC 43300. After 2 hours incubation at 37°C, bacteria were transplanted on solid culture medium. Bacterial cultures were cultivated without peptides as growth control."}, "[2]": {"system": "Staphylococcus aureus ATCC 25923", "test": "antimicrobial activity in presence of Muller-Hinton 20%", "assay_type": "cell-based", "details": "20% of Muller-Hinton medium", "experimental": "as §1, §2"}, "[3]": {"system": "E. coli ATCC 25922", "test": "antimicrobial activity in presence of Muller-Hinton 20%", "assay_type": "cell-based", "details": "20% of Muller-Hinton medium", "experimental": "as §1, §2"}, "[4]": {"system": "Staphylococcus aureus ATCC 22953", "test": "micro-dilution in liquid medium and transplant on solid medium, Gram-positive bacteria", "assay_type": "cell-based", "details": "2 hours at 37°C, transplant on agar", "experimental": "(§3) For each bacterial strain 3-5 morphologically similar colonies from fresh cultures were taken and inoculated in Brain Heart Infusion broth, then incubated at 37°C in agitation at 225 r.p.m. for about 3-4 hours. Then the bacterial suspension was centrifuged at 1000 G for 20 minutes and the pellet resuspended in phosphate buffer pH 7, 10 mM. The turbidity of the bacterial suspension was measured using a spectrophotometer with absorbance of 600 nm; the range 0,08-0,13 equates to about 10^8 cfu/ml. The bacterial suspension was diluted 1:100 in phosphate buffer 10mM to obtain a bacterial concentration of about 10^6 cfu/ml. Within 30 minutes 50 µl of the suspension 10^6 cfu/ml were inoculated in each well of the microtiter plate, to obtain a bacterial concentration of about 5x10^5 cfu/ml.\n(§4) The peptides ability to inhibit the bacterial growth in liquid cultures was tested. 50 µl of each peptides solutions of about 0.2-50 µM were added in microtiter plates with 96 wells with liquid culture medium and one of these bacterial strains: Staphylococcus aureus ATCC 25923, MRSA ATCC 43300, Streptococcus agalactiae ATCC 13813 and Enterococcus hirae ATCC 10541. After 2 hours of incubation at 37°C, bacterial suspensions were put on solid culture medium. Bacterial cultures were cultivated without peptides as growth control.\n(§5) The bacterial suspension and differing peptides concentrations were put in contact for about 2 hours at 37°C. After this incubation, 20 µl from each well of the plate were transplanted on solid culture medium, Columbia agar with 5% of bovine erythrocytes for Gram-positive bacteria. The inoculum was evenly distributed on the agar medium with the aid of a sterile disposable handle. After an incubation time of 24 hours at 37°C, the bacterial colonies (cfu) were counted."}, "[5]": {"system": "Enterococcus hirae ATCC 10541", "test": "micro-dilution in liquid medium and transplant on solid medium, Gram-positive bacteria", "assay_type": "cell-based", "details": "2 hours at 37°C, transplant on agar", "experimental": "as §3, §4, §5"}, "[6]": {"system": "Streptococcus agalactiae ATCC 13813", "test": "micro-dilution in liquid medium and transplant on solid medium, Gram-positive bacteria", "assay_type": "cell-based", "details": "2 hours at 37°C, transplant on agar", "experimental": "as §3, §4, §5"}, "[7]": {"system": "MRSA ATCC 43300", "test": "antimicrobial activity in presence of Muller-Hinton 20%", "assay_type": "cell-based, Staphylococcus aureus", "details": "20% of Muller-Hinton medium", "experimental": "as §1, §2"}, "[8]": {"system": "Gram-negative tested bacteria", "test": "micro-dilution and transplant on agar, summary over Gram-negative panel", "assay_type": "cell-based", "details": "almost all Gram-negative tested bacteria", "experimental": "as §3, with “range 0.08-0.13” for “range 0,08-0,13”, “suspension (10^6 cfu/ml)” for “suspension 10^6 cfu/ml”\nThe peptides ability to inhibit the bacterial growth in liquid cultures was tested. 50 µl of each peptides solutions of about 0,2-50 µM were added in microtiter plates with 96 wells with U-shaped bottom, containing the liquid culture medium and one of these bacterial strains: E coli ATCC 25922, Pseudomonas. […]\nThe bacterial suspension and peptides were put in contact for 2 hours at 37°C, with differing concentrations of the peptide. […] After an incubation time of 24 hours at 37°C, the bacterial colonies (cfu) were counted."}, "[9]": {"system": "E. coli ML-35pYC", "test": "membrane permeabilization assay (CENTA outer membrane, ONPG inner membrane)", "assay_type": "cell-based", "details": "peptide 12.5 µg/ml; absorbance every 10 minutes for 240 minutes", "experimental": "Methods: to test the bacterial membrane permeabilization caused by the peptides of the invention, E. coli ML-35pYC strain was used. This bacterial strain express ampicillin resistence, a constitutive expression of cytoplasmic β-galactosidase and is engineered with a plasmid for a periplasmic β-lactamase synthesis. Sixty microliters (60 µl) of bacterial suspension, containing E. coli ML-35pYC strain, were added to 60 µl of ONPG solution (15 mM) or to 60 µl of CENTA (1,5 mM) diluted in phosphate buffer. Subsequently 120 µl of the examined peptide were added, to obtain a final concentration of 12.5 µg/ml (NCP-2=5,4 µM, NCP-3=5.2 µM). The absorbance value was registered at […] for ONPG and at 405 nm for CENTA, every 10 minutes for 240 minutes to assess the reaction's kinetics."}}, "note": "“And” between values parts separate entries of the source, which are not always exact repeats. Equal entries are not always repeated. Residues, ends and D or L forms follow the SMILES beside them.", "data": [{"smiles": "CC[C@H](C)[C@H](NC(=O)[C@H](CCCCN)NC(=O)[C@H](Cc1ccc(O)cc1)NC(=O)[C@H](CS)NC(=O)[C@H](CC(C)C)NC(=O)[C@H](CC(N)=O)NC(=O)[C@H](CCCCN)NC(=O)CNC(=O)[C@H](C)NC(=O)[C@@H]1CCCN1C(=O)[C@H](CS)NC(=O)[C@@H](NC(=O)[C@H](CCCCN)NC(=O)[C@H](CO)NC(=O)[C@H](C)NC(=O)[C@@H](NC(=O)[C@@H]1CCCN1C(=O)[C@@H](NC(=O)[C@H](CC(C)C)NC(=O)[C@@H](N)CCCCN)[C@@H](C)CC)[C@@H](C)CC)[C@@H](C)O)C(=O)O", "note": "[NCP-0, K LIPIA SKT CPA GKN LCY KI] (H-KLIPIASKTCPAGKNLCYKI-OH; N-terminus and C-terminus assumed)", "values": [{"measurement": "Antimicrobial activity (% to control)", "setting": "[1]; peptide 3.1 µg/ml", "result": 0, "unit": "%"}, {"measurement": "Antimicrobial activity (% to control)", "setting": "[1]; peptide 6.3 µg/ml", "result": 0, "unit": "%"}, {"measurement": "Antimicrobial activity (% to control)", "setting": "[1]; peptide 12.5 µg/ml", "result": 0, "unit": "%"}, {"measurement": "Antimicrobial activity (% to control)", "setting": "[1]; peptide 100 µg/ml", "result": 0, "unit": "%"}, {"measurement": "Antimicrobial activity (% to control)", "setting": "[2]; peptide 3.1 µg/ml", "result": 0, "unit": "%"}, {"measurement": "Antimicrobial activity (% to control)", "setting": "[2]; peptide 6.3 µg/ml", "result": 0, "unit": "%"}, {"measurement": "Antimicrobial activity (% to control)", "setting": "[2]; peptide 12.5 µg/ml", "result": 0, "unit": "%"}, {"measurement": "Antimicrobial activity (% to control)", "setting": "[2]; peptide 100 µg/ml", "result": 0, "unit": "%"}, {"measurement": "Antimicrobial activity (% to control)", "setting": "[3]; peptide 3.1 µg/ml", "result": 0, "unit": "%"}, {"measurement": "Antimicrobial activity (% to control)", "setting": "[3]; peptide 6.3 µg/ml", "result": 0, "unit": "%"}, {"measurement": "Antimicrobial activity (% to control)", "setting": "[3]; peptide 12.5 µg/ml", "result": 0, "unit": "%"}, {"measurement": "Antimicrobial activity (% to control)", "setting": "[3]; peptide 100 µg/ml", "result": 0, "unit": "%"}, {"measurement": "LD90", "setting": "[4]", "result": "> 100 µg/ml and > 46.3 µM"}, {"measurement": "LD99", "setting": "[4]", "result": "> 200 µg/ml and > 92.6 µM"}, {"measurement": "LD90", "setting": "[5]", "result": "> 100 µg/ml and > 46.3 µM"}, {"measurement": "LD99", "setting": "[5]", "result": "> 200 µg/ml and > 92.6 µM"}, {"measurement": "LD90", "setting": "[6]", "result": "100 µg/ml and 46.3 µM"}, {"measurement": "LD99", "setting": "[6]", "result": "> 100 µg/ml and > 46.3 µM"}, {"measurement": "Antimicrobial activity (% to control)", "setting": "[7]; peptide 3.1 µg/ml", "result": 0, "unit": "%"}, {"measurement": "Antimicrobial activity (% to control)", "setting": "[7]; peptide 6.3 µg/ml", "result": 0, "unit": "%"}, {"measurement": "Antimicrobial activity (% to control)", "setting": "[7]; peptide 12.5 µg/ml", "result": 0, "unit": "%"}, {"measurement": "Antimicrobial activity (% to control)", "setting": "[7]; peptide 100 µg/ml", "result": 0, "unit": "%"}, {"measurement": "antimicrobial activity", "setting": "[8]", "result": "scarcely active"}, {"measurement": "damage to the inner membrane (ONPG)", "setting": "[9]", "result": "had not demonstrated activity on outer or inner membrane"}, {"measurement": "damage to the outer membrane (CENTA)", "setting": "[9]", "result": "had not demonstrated activity on outer or inner membrane"}]}]}
